Source: patent publication EP2271935B1, “METHOD AND KIT FOR THE EX VIVO EVALUATION OF THE RESPONSE OF A TUMOR TO CONDITIONS TO BE TESTED” (Universität Leipzig, priority 2008, dated 2009)
Where two headings read alike, the source gives them in different places.

Test system: epithelial cell line KB (DSMZ ACC 136)
Experiment: MTT assay of proliferation under varied riboflavin content and light exposure
Assay type: cell-based, human
Text: To address this question, three media, a) the RPMI 1640 without riboflavin and phenol red that is used in the method according to the invention and was manufactured according to our specifications by Biochrom, as well as two different RPMI 1640 charges purchased from Invitrogen which were each containing 532 nmol/L riboflavin, b) a phenol red-free (Gibco 11835), and c) a conventional RPMI 1640 (Gibco 21875) with 13.284 µmol/L phenol red. All media were supplemented with 2 mmol/L L-alanyl-1-glutamine as stabilized glutamine source (Biochrom K0302 Lot 0755 S) and the same amount of 10% (v/v) of heat-inactivated fetal calf serum (FCS) that was purchased from Invitrogen (Lot 41Q7554K) with a yield of 198 nmol/L riboflavin. […] These medium concentrations define the riboflavin concentrations in controls (see below).
In addition to the influences exerted by the different types of media alone, the riboflavin-dependent impact on the outcome of the docetaxel treatment was investigated. For this purpose 100 µl/well of docetaxel dilutions containing threefold the concentration indicated were added into the wells of microwell plates. The following seven docetaxel concentrations were tested: 19.38, 38.75, 77.5, 155, 310, 620, and 1,240 pmol/L.
To examine photoactivation-dependent riboflavin-mediated effects disturbing the outcome of ex-vivo chemoresponse-evaluation by conventional cell culture medium, and in particular in the absence of flavin-protecting experimental conditions, varying amounts of riboflavin were added. A stock solution of 200 µM (-)-riboflavin (CAS 83-68-5, Sigma R9504, FW=376.37 g/mol, purity >99%, cell culture tested) in phosphate buffered saline was diluted to adjust in each case the highest final concentration in culture (this means: after completion of the assay by addition of the other two components to the final assay volume of 300 µL) to exactly 10 µmol/L. Serial log10-dilutions were made from this concentration in each corresponding medium. These gave final concentrations in cell culture of 10.000, 1.018, 0.12, and 0.03 µmol/L in the case of medium a) (the medium according to the method of the invention), and concentrations of 10.000, 1.449, 0.594, and 0.508 µmol/L using media b) and c).
In general, each combination of riboflavin and docetaxel were tested in duplicate, and controls without additional riboflavin in quadruplicate for each experimental setting in the same 96-well plate. The experimental conditions were as follows: For each of the used media, two different plates were prepared simultaneously and either handled completely under flavin-protecting conditions (illumination only by sodium discharge lamps with an emission wavelength of 589 nm [i]), or in the same bench (Thermo MSC 12) with the installed light inside their working chamber switched on. The dilution of docetaxel and those of riboflavin in the particular medium were prepared for all four plates of each medium type prior to the other working steps under flavin-protecting conditions. Thus the administrations of these dilutions took about 20 min either under flavin-protecting conditions or illuminated conditions. After completed preparation of the plates that thereafter contained 200 µL of both diluted compounds, the plates were incubated 2 h in the incubator to allow for adjustment of the appropriate pH.
In between the stock culture of KB was harvested by trypsination of a 3-days stock culture (exponential growth phase). Stock cultures of KB cells always were grown without any antibiotic or antimycotic in phenol red- and riboflavin-free RPMI 1640 supplemented with 10% (v/v) FCS and were adapted to this medium for more than five passages. They were always handled at room temperature or warmer and were never exposed to light other than the light of a sodium discharge lamp with an emission wavelength of 589 nm for at least five passages. […]

Q: `CC(=O)O[C@@]12CO[C@@H]1C[C@H](O)[C@@]1(C)C(=O)[C@H](O)C3=C(C)[C@@H](OC(=O)[C@H](O)[C@@H](NC(=O)OC(C)(C)C)c4ccccc4)C[C@@](O)([C@@H](OC(=O)c4ccccc4)[C@H]21)C3(C)C` [docetaxel] was tested. Which IC50 (Homo sapiens, Epithelial cell, 0.5 h, Plate No. 02; Riboflavin 20 nmol/L; medium a) RPMI 1640 without riboflavin and phenol red, daylight 30 min, read-out: IC50 for docetaxel with reference to control with same riboflavin content) did it give?
A: 0.238 nM

Q: And the IC50 (Homo sapiens, Epithelial cell, 0.5 h, Plate No. 02; Riboflavin 20 nmol/L; medium a), daylight 30 min, read-out: IC50 for docetaxel normalized to medium control of medium with same riboflavin content)?
A: 0.1 nM

Q: And the IC50 (Homo sapiens, Epithelial cell, 0.5 h, Plate No. 02; Riboflavin 30 nmol/L; medium a) RPMI 1640 without riboflavin and phenol red, daylight 30 min, read-out: IC50 for docetaxel with reference to control with same riboflavin content)?
A: 0.328 nM

Q: What about the IC50 (Homo sapiens, Epithelial cell, 0.5 h, Plate No. 02; Riboflavin 30 nmol/L; medium a), daylight 30 min, read-out: IC50 for docetaxel normalized to medium control of medium with same riboflavin content) of the same compound?
A: 0.138 nM

Q: What about the IC50 (Homo sapiens, Epithelial cell, 0.5 h, Plate No. 02; Riboflavin 120 nmol/L; medium a) RPMI 1640 without riboflavin and phenol red, daylight 30 min, read-out: IC50 for docetaxel with reference to control with same riboflavin content) of the same compound?
A: 0.34 nM

Q: What about the IC50 (Homo sapiens, Epithelial cell, 0.5 h, Plate No. 02; Riboflavin 120 nmol/L; medium a), daylight 30 min, read-out: IC50 for docetaxel normalized to medium control of medium with same riboflavin content) of the same compound?
A: 0.143 nM

Q: What about the IC50 (Homo sapiens, Epithelial cell, 0.5 h, Plate No. 03; Riboflavin 20 nmol/L; medium a) RPMI 1640 without riboflavin and phenol red, bench lighting <30 min, read-out: IC50 for docetaxel with reference to control with same riboflavin content) of the same compound?
A: 0.212 nM

Q: And the IC50 (Homo sapiens, Epithelial cell, 0.5 h, Plate No. 03; Riboflavin 20 nmol/L; medium a), bench lighting <30 min, read-out: IC50 for docetaxel normalized to medium control of medium with same riboflavin content)?
A: 0.1 nM

Q: What about the IC50 (Homo sapiens, Epithelial cell, 0.5 h, Plate No. 03; Riboflavin 30 nmol/L; medium a) RPMI 1640 without riboflavin and phenol red, bench lighting <30 min, read-out: IC50 for docetaxel with reference to control with same riboflavin content) of the same compound?
A: 0.185 nM

Q: And the IC50 (Homo sapiens, Epithelial cell, 0.5 h, Plate No. 03; Riboflavin 30 nmol/L; medium a), bench lighting <30 min, read-out: IC50 for docetaxel normalized to medium control of medium with same riboflavin content)?
A: 0.0873 nM

Q: And the IC50 (Homo sapiens, Epithelial cell, 0.5 h, Plate No. 03; Riboflavin 120 nmol/L; medium a) RPMI 1640 without riboflavin and phenol red, bench lighting <30 min, read-out: IC50 for docetaxel with reference to control with same riboflavin content)?
A: 0.154 nM

Q: What about the IC50 (Homo sapiens, Epithelial cell, 0.5 h, Plate No. 03; Riboflavin 120 nmol/L; medium a), bench lighting <30 min, read-out: IC50 for docetaxel normalized to medium control of medium with same riboflavin content) of the same compound?
A: 0.0725 nM

Q: What about the IC50 (Homo sapiens, Epithelial cell, 0.5 h, Plate No. 03; Riboflavin 1018 nmol/L; medium a) RPMI 1640 without riboflavin and phenol red, bench lighting <30 min, read-out: IC50 for docetaxel with reference to control with same riboflavin content) of the same compound?
A: 0.202 nM

Q: What about the IC50 (Homo sapiens, Epithelial cell, 0.5 h, Plate No. 03; Riboflavin 1018 nmol/L; medium a), bench lighting <30 min, read-out: IC50 for docetaxel normalized to medium control of medium with same riboflavin content) of the same compound?
A: 0.095 nM

Q: What about the IC50 (Homo sapiens, Epithelial cell, 0.5 h, Plate No. 04; Riboflavin 20 nmol/L; medium a) RPMI 1640 without riboflavin and phenol red, bench lighting <30 min, daylight 30 min, read-out: IC50 for docetaxel with reference to control with same riboflavin content) of the same compound?
A: 0.175 nM

Q: And the IC50 (Homo sapiens, Epithelial cell, 0.5 h, Plate No. 04; Riboflavin 20 nmol/L; medium a), bench lighting <30 min, daylight 30 min, read-out: IC50 for docetaxel normalized to medium control of medium with same riboflavin content)?
A: 0.1 nM

Q: And the IC50 (Homo sapiens, Epithelial cell, 0.5 h, Plate No. 04; Riboflavin 30 nmol/L; medium a) RPMI 1640 without riboflavin and phenol red, bench lighting <30 min, daylight 30 min, read-out: IC50 for docetaxel with reference to control with same riboflavin content)?
A: 0.139 nM

Q: And the IC50 (Homo sapiens, Epithelial cell, 0.5 h, Plate No. 04; Riboflavin 30 nmol/L; medium a), bench lighting <30 min, daylight 30 min, read-out: IC50 for docetaxel normalized to medium control of medium with same riboflavin content)?
A: 0.0796 nM

Q: And the IC50 (Homo sapiens, Epithelial cell, 0.5 h, Plate No. 04; Riboflavin 120 nmol/L; medium a) RPMI 1640 without riboflavin and phenol red, bench lighting <30 min, daylight 30 min, read-out: IC50 for docetaxel with reference to control with same riboflavin content)?
A: 0.149 nM

Q: What about the IC50 (Homo sapiens, Epithelial cell, 0.5 h, Plate No. 04; Riboflavin 120 nmol/L; medium a), bench lighting <30 min, daylight 30 min, read-out: IC50 for docetaxel normalized to medium control of medium with same riboflavin content) of the same compound?
A: 0.0855 nM

Q: What about the IC50 (Homo sapiens, Epithelial cell, 0.5 h, Plate No. 06; Riboflavin 499 nmol/L; medium b) phenol red-free RPMI 1640, daylight 30 min, read-out: IC50 for docetaxel with reference to control with same riboflavin content) of the same compound?
A: 0.223 nM

Q: What about the IC50 (Homo sapiens, Epithelial cell, 0.5 h, Plate No. 06; Riboflavin 499 nmol/L; medium b), daylight 30 min, read-out: IC50 for docetaxel normalized to medium control of medium with same riboflavin content) of the same compound?
A: 0.1 nM

Q: What about the IC50 (Homo sapiens, Epithelial cell, 0.5 h, Plate No. 06; Riboflavin 508 nmol/L; medium b) phenol red-free RPMI 1640, daylight 30 min, read-out: IC50 for docetaxel with reference to control with same riboflavin content) of the same compound?
A: 0.485 nM

Q: And the IC50 (Homo sapiens, Epithelial cell, 0.5 h, Plate No. 06; Riboflavin 508 nmol/L; medium b), daylight 30 min, read-out: IC50 for docetaxel normalized to medium control of medium with same riboflavin content)?
A: 0.218 nM

Q: And the IC50 (Homo sapiens, Epithelial cell, 0.5 h, Plate No. 06; Riboflavin 594 nmol/L; medium b) phenol red-free RPMI 1640, daylight 30 min, read-out: IC50 for docetaxel with reference to control with same riboflavin content)?
A: 0.187 nM
